{"source": "PubChem BioAssay AID1259409", "about": "(Chemical Carcinogenesis Research Information System (CCRIS), 2018)", "origin": "cited, not measured here", "system": "rodent chemically induced tumor inhibition, incidence and multiplicity", "test": "CCRIS tumor inhibitor studies", "conditions": "Route [Inhibitor]: ORAL, Promoter: NONE USED"}
{"smiles": "CC1=C(/C=C/C(C)=C/C=C/C(C)=C/C(=O)Nc2ccc(O)cc2)C(C)(C)CCC1", "values": [{"measurement": "tumour outcome (control, treated, inhibition, significance)", "setting": "Carcinogen: METHYLNITROSOUREA, 684-93-5, Dose [Inhibitor]: 0, 782 MG/KG DIET IN VEHICLE 2 MO PRIOR TO CARCINOGEN DOSE AND CONTINUED UNTIL CARCINOGEN ADMINISTRATION (STUDY DURATION, Species: RAT, Strain/Sex: CD-1/FEMALE, Target Tissue: Type of Lesion: MAMMARY GLAND: BENIGN TUMOR, Dose [Carcinogen]: 50 MG/KG BW ONCE", "result": "10%, 14%, -40%, not calculated"}, {"measurement": "tumour outcome (control, treated, inhibition, significance)", "setting": "Carcinogen: N-BUTYL-N(4-HYDROXYBUTYL)NITROSAMINE, 3817-11-6, Dose [Inhibitor]: 0, 156 MG/KG DIET FOR 6 MO BEGINNING 1 WK PRIOR TO CARCINOGEN TREATMENT (STUDY DURATION: 6 MO), Species: MOUSE, Strain/Sex: BDF/MALE, Target Tissue: Type of Lesion: URINARY BLADDER: CARCINOMA, Dose [Carcinogen]: 7.5 MG IN 0.1 ML ETHANOL:WATER (20:80) 1/WK FOR 8 WK", "result": "27/70 (39%), 31/67 (46%), -18%, not calculated"}, {"measurement": "tumour outcome (control, treated, inhibition, significance)", "setting": "Carcinogen: N-BUTYL-N-(4-HYDROXYBUTYL)NITROSAMINE, 3817-11-6, Dose [Inhibitor]: 0, 156 MG/KG DIET BEGINNING 1 WK PRIOR TO CARCINOGEN TREATMENT AND CONTINUING FOR DURATION OF STUDY (STUDY DURATION: 180, Species: MOUSE, Strain/Sex: BDF/MALE, Target Tissue: Type of Lesion: BLADDER: CARCINOMA, Dose [Carcinogen]: 7.5 MG IN 0.1 ML OF ETHANOL:WATER (20:80) 1/WK FOR 8 WK", "result": "25/63 (40%), 27/70 (39%), 3%, not significant"}, {"measurement": "tumour outcome (control, treated, inhibition, significance)", "setting": "Carcinogen: N-BUTYL-N-(4-HYDROXYBUTYL)NITROSAMINE, 3817-11-6, Dose [Inhibitor]: 0, 313 MG/KG DIET BEGINNING 1 WK PRIOR TO CARCINOGEN TREATMENT AND CONTINUING FOR DURATION OF STUDY (STUDY DURATION: 180, Species: MOUSE, Strain/Sex: BDF/MALE, Target Tissue: Type of Lesion: BLADDER: CARCINOMA, Dose [Carcinogen]: 7.5 MG IN 0.1 ML OF ETHANOL:WATER (20:80) 1/WK FOR 8 WK", "result": "28/65 (43%), 20/67 (30%), 30%, not significant"}, {"measurement": "tumour outcome (control, treated, inhibition, significance)", "setting": "Carcinogen: N-BUTYL-N-(4-HYDROXYBUTYL)NITROSAMINE, 3817-11-6, Dose [Inhibitor]: 0, 313 MG/KG DIET FOR 6 MO BEGINNING 1 WK PRIOR TO CARCINOGEN TREATMENT (STUDY DURATION: 6 MO), Species: MOUSE, Strain/Sex: BDF/MALE, Target Tissue: Type of Lesion: URINARY BLADDER: CARCINOMA, Dose [Carcinogen]: 7.5 MG IN 0.1 ML ETHANOL:WATER (20:80) 1/WK FOR 8 WK", "result": "30/73 (41%), 28/67 (42%), -2%, not calculated"}, {"measurement": "tumour outcome (control, treated, inhibition, significance)", "setting": "Carcinogen: N-BUTYL-N-(4-HYDROXYBUTYL)NITROSAMINE, 3817-11-6, Dose [Inhibitor]: 1.5 MMOL/KG DIET DAILY FOR 153 D STARTING ONE WK AFTER THE FINAL CARCINOGEN DOSE (STUDY DURATION: 210 D), Species: MOUSE, Strain/Sex: BDF/MALE, Target Tissue: Type of Lesion: URINARY BLADDER: TRANSITIONAL CELL CARCINOMA, Dose [Carcinogen]: 7.5 MG 1/WK FOR 8 WK", "result": "35/99 (35%), 21/100 (21%), 40%, p<0.05"}, {"measurement": "tumour outcome (control, treated, inhibition, significance)", "setting": "Carcinogen: N-BUTYL-N-(4-HYDROXYBUTYL)NITROSAMINE, 3817-11-6, Dose [Inhibitor]: 1.5 MMOL/KG IN DIET FOR 153 D STARTING 1 WK AFTER LAST CARCINOGEN DOSE (STUDY DURATION: 210 D), Species: MOUSE, Strain/Sex: DBF1/MALE, Target Tissue: Type of Lesion: URINARY BLADDER: TRANSITIONAL CELL CARCINOMA, Dose [Carcinogen]: 7.5 MG 1/WK FOR 8 WK", "result": "35/99 (35%), 21/100 (21%), 40%, p<0.05"}, {"measurement": "tumour outcome (control, treated, inhibition, significance)", "setting": "Carcinogen: N-BUTYL-N-(4-HYDROXYBUTYL)NITROSAMINE, 3817-11-6, Dose [Inhibitor]: 391 MG/KG DIET STARTING 1 WK AFTER FINAL CARCINOGEN DOSE AND CONTINUING THROUGH END OF STUDY (STUDY DURATION: 205 D), Species: MOUSE, Strain/Sex: DBF1/MALE, Target Tissue: Type of Lesion: URINARY BLADDER: TRANSITIONAL CELL CARCINOMA, Dose [Carcinogen]: 7.5 MG 1/WK FOR 8 WK", "result": "19/50 (38%), 9/49 (18%), 53%, p<0.05"}, {"measurement": "tumour outcome (control, treated, inhibition, significance)", "setting": "Carcinogen: N-BUTYL-N-(4-HYDROXYBUTYL)NITROSAMINE, 3817-11-6, Dose [Inhibitor]: 391 MG/KG IN DIET BEGINNING 1 WK AFTER FINAL CARCINOGEN DOSE AND CONTINUING THROUGH END OF STUDY (STUDY DURATION: 205 D), Species: MOUSE, Strain/Sex: DBF1/MALE, Target Tissue: Type of Lesion: URINARY BLADDER: TRANSITIONAL CELL CARCINOMA, Dose [Carcinogen]: 7.5 MG 1/WK FOR 8 WK", "result": "19/50 (38%), 9/49 (18%), 53%, p<0.05"}, {"measurement": "tumour outcome (control, treated, inhibition, significance)", "setting": "Carcinogen: N-ETHYL-N-NITROSOUREA, 759-73-9, Dose [Inhibitor]: 0, 98 MG/KG DIET FOR DURATION OF STUDY BEGINNING POST CARCINOGEN DOSE (STUDY DURATION: 35 WK), Species: MOUSE, Strain/Sex: PIM/MALE, Target Tissue: Type of Lesion: LYMPHATIC SYSTEM: LYMPHOMA, Dose [Carcinogen]: 50 MG/KG BW ONCE", "result": "21/40 (53%), 13/30 (43%), 19%, not significant"}, {"measurement": "tumour outcome (control, treated, inhibition, significance)", "setting": "Carcinogen: N-ETHYL-N-NITROSOUREA, 759-73-9, Dose [Inhibitor]: 0, 196 MG/KG DIET FOR DURATION OF STUDY BEGINNING POST CARCINOGEN DOSE (STUDY DURATION: 35 WK), Species: MOUSE, Strain/Sex: PIM/MALE, Target Tissue: Type of Lesion: LYMPHATIC SYSTEM: LYMPHOMA, Dose [Carcinogen]: 50 MG/KG BW ONCE", "result": "21/40 (53%), 15/29 (52%), 2%, not significant"}, {"measurement": "tumour outcome (control, treated, inhibition, significance)", "setting": "Carcinogen: N-ETHYL-N-NITROSOUREA, 759-73-9, Dose [Inhibitor]: 0, 391 MG/KG DIET FOR DURATION OF STUDY BEGINNING POST CARCINOGEN DOSE (STUDY DURATION: 35 WK), Species: MOUSE, Strain/Sex: PIM/MALE, Target Tissue: Type of Lesion: LYMPHATIC SYSTEM: LYMPHOMA, Dose [Carcinogen]: 50 MG/KG BW ONCE", "result": "21/40 (53%), 16/40 (40%), 26%, not significant"}]}
